Reference: ChEMBL document CHEMBL4627385, “Cytotoxic Monoterpenoid Indole Alkaloids from Tabernaemontana corymbosa as Potent Autophagy Inhibitors by the Attenuation of Lysosomal Acidification” (J Nat Prod, 2020)
Activity calls are given as the source filed them. The calls are words filed in the database; no cut-off is given here.

Key:
Type in all cases: functional, cell-based
HeLa [1] = assay: Inhibition of lysosomal acidification in human HeLa cells incubated for 3 hrs by LysoTracker Red DND-99 staining based array scan method
HeLa [2] = assay: Inhibition of autophagic flux in human HeLa cells harboring GFP-LC3 assessed as increase in LC3 dot accumulation incubated for 12 hrs by confocal microscopic method
HeLa [3] = assay: Inhibition of autophagic flux in human HeLa cells assessed as increase in LC3-2 to LC3-1 ratio at 20 uM by Western blot analysis
HeLa [4] = assay: Inhibition of autophagic flux in human HeLa cells assessed as increase in LC3-2 to LC3-1 ratio at 20 uM in presence of Bafilomycin A1 by Western blot analysis
HeLa [5] = assay: Inhibition of autophagic flux in human HeLa cells assessed as p62 protein expression at 20 uM by Western blot analysis
HL-60 = assay: Cytotoxicity against human HL60 cells assessed as reduction in cell viability incubated for 48hrs by MTT assay; details: HL-60, 48 h
A549 = assay: Cytotoxicity against human A549 cells assessed as reduction in cell viability incubated for 48hrs by MTT assay; details: A549, 48 h
SMMC-7721 = assay: Cytotoxicity against human SMMC7721 cells assessed as reduction in cell viability incubated for 48hrs by MTT assay; details: SMMC-7721, 48 h
MCF7 = assay: Cytotoxicity against human MCF7 cells assessed as reduction in cell viability incubated for 48hrs by MTT assay; details: MCF7, 48 h
SW480 = assay: Cytotoxicity against human SW480 cells assessed as reduction in cell viability incubated for 48hrs by MTT assay; details: SW480, 48 h
HeLa [6] = assay: Inhibition of autophagic flux in human HeLa cells assessed as inhibition of lysosomal acidification at 50 nM by Western blot analysis
HeLa [7] = assay: Inhibition of autophagic flux in human HeLa cells assessed as increase in LC3-2 accumulation at 50 nM by Western blot analysis
HeLa [8] = assay: Inhibition of autophagic flux in human HeLa cells assessed as increase in LC3-2 to LC3-1 ratio at 50 nM by Western blot analysis
HeLa [9] = assay: Inhibition of autophagic flux in human HeLa cells assessed as p62 protein expression at 50 nM by Western blot analysis

## COC(=O)[C@@]12C[C@@H]3CC([C@H](C)O)[C@@H]1[N@@](CC[C@]1(O)C2=Nc2ccccc21)C3 (stereo partly drawn)
HeLa [1]
  EC50: > 40 µM

## CC[C@H]1C[C@]2(C(=O)OC)CN3CC[C@@]4(O)C(=Nc5cc(OC)c([C@@H]6C[C@H]7[C@@]8(C(=O)OC)CO[C@H](N(C)[C@H]8Cc8c6[nH]c6ccccc86)[C@@]76O[C@H]6C)cc54)[C@](C(=O)OC)(C2)[C@H]13
HeLa [1]
  EC50: 12.9 µM
  inhibition: Dose-dependent effect
HeLa [2]
  inhibition: Active
HeLa [3]
  inhibition: Active
HeLa [4]
  inhibition: Active
HeLa [5]
  inhibition: Active

## CCN(CC)CCCC(C)Nc1ccnc2cc(Cl)ccc12 (stereo not drawn) [CHLOROQUINE]
HeLa [1]
  EC50: 19.6 µM

## COC(=O)C[C@@H]1[C@@H]2C[C@H]([C@H](C)O)[C@@H]3N1CCc1c([nH]c4ccc(OC)cc14)[C@]3(C(=O)OC)C2
HL-60
  IC50: > 10 µM
A549
  IC50: > 10 µM
SMMC-7721
  IC50: > 10 µM
MCF7
  IC50: > 10 µM
SW480
  IC50: > 10 µM
HeLa [1]
  EC50: > 40 µM

## CC[C@H]1C[C@H]2CN3CC[C@@]4(O)C(=Nc5cc(OC)ccc54)[C@](C(=O)OC)(C2)[C@H]13
HL-60
  IC50: > 10 µM
A549
  IC50: > 10 µM
SMMC-7721
  IC50: > 10 µM
MCF7
  IC50: > 10 µM
SW480
  IC50: 7.5 µM
HeLa [1]
  EC50: > 40 µM

## CC[C@H]1C[C@@H]2CN3CCc4c([nH]c5ccccc45)[C@](C(=O)OC)(C2)[C@H]13 [CORONARIDINE]
HeLa [1]
  EC50: > 40 µM

## CC[C@H]1C[C@H]2CN3CCc4c([nH]c5cc(OC)c([C@@H]6C[C@H]7[C@@]8(C(=O)OC)CO[C@H](N(C)[C@H]8Cc8c6[nH]c6ccccc86)[C@@]76O[C@H]6C)cc45)[C@](C(=O)OC)(C2)[C@H]13
HL-60
  IC50: < 10 µM
A549
  IC50: < 10 µM
SMMC-7721
  IC50: < 10 µM
MCF7
  IC50: < 10 µM
SW480
  IC50: > 10 µM
HeLa [1]
  EC50: 20.2 µM
  inhibition: Dose-dependent effect
HeLa [2]
  inhibition: Active
HeLa [3]
  inhibition: Active
HeLa [4]
  inhibition: Active
HeLa [5]
  inhibition: Active

## CC[C@H]1C[C@H]2C[C@@]3(C(=O)OC)c4[nH]c5cc(OC)ccc5c4CC[N@@](C2CC(C)=O)[C@@H]13 (stereo partly drawn)
HeLa [1]
  EC50: > 40 µM

## COC(=O)[C@@]12C[C@@H]3C[C@H]([C@H](C)O)C1[N@@](CCc1c2[nH]c2ccccc12)C3
HeLa [1]
  EC50: > 40 µM

## CC[C@H]1C[C@@H]2CN3CCc4c([nH]c5cc(OC)ccc45)[C@](C(=O)OC)(C2)[C@H]13 [ISOVOACANGINE]
HeLa [1]
  EC50: > 40 µM

## C/C=C1/CN2COC[C@]3(C(=O)OC)[C@@H]1C[C@@H](c1c(OC)ccc4c1N=C1[C@]5(C(=O)OC)C[C@@H]6C[C@H](CC)[C@@H]5N(CC[C@]14O)C6)c1[nH]c4ccccc4c1C[C@H]23
HeLa [1]
  EC50: > 40 µM

## C/C=C1/CN(C)[C@H]2Cc3c([nH]c4ccccc34)[C@H](c3cc4c(cc3OC)N=C3[C@]5(C(=O)OC)C[C@]6(C(=O)OC)C[C@H](CC)[C@@H]5N(CC[C@@]34O)C6)C[C@H]1[C@]2(CO)C(=O)OC
HeLa [1]
  EC50: 25.7 µM
  inhibition: Dose-dependent effect

## COC(=O)[C@@]12CC3C[C@H]([C@H](C)O)[C@@H]1N(C3)Cn1c2c(C=O)c2ccccc21
HL-60
  IC50: > 10 µM
A549
  IC50: > 10 µM
SMMC-7721
  IC50: > 10 µM
MCF7
  IC50: > 10 µM
SW480
  IC50: > 10 µM
HeLa [1]
  EC50: > 40 µM

## CC[C@H]1C[C@@H]2CN3CCc4c([nH]c5cc(OC)c([C@@H]6C[C@H]7C(C(=O)OC)[C@H](Cc8c6[nH]c6ccccc86)N(C)C[C@H]7CC)cc45)[C@](C(=O)OC)(C2)[C@H]13 (stereo partly drawn)
HeLa [1]
  EC50: 16 µM
  inhibition: Dose-dependent effect

## C/C=C1/CN(C)[C@H]2Cc3c([nH]c4ccccc34)[C@H](c3c(OC)ccc4c3N[C@]3(OC)[C@]5(C(=O)OC)C[C@H]6C[C@H](CC)[C@@H]5N5CC[C@@]43O[C@H]65)C[C@H]1[C@]2(CO)C(=O)OC
HL-60
  IC50: > 10 µM
A549
  IC50: > 10 µM
SMMC-7721
  IC50: > 10 µM
MCF7
  IC50: > 10 µM
SW480
  IC50: > 10 µM
HeLa [1]
  EC50: > 40 µM

## C/C=C1/CN(C)[C@H]2Cc3c([nH]c4ccccc34)[C@H](c3c(OC)ccc4c5c([nH]c34)[C@]3(C(=O)OC)C[C@H]4C[C@H](CC)[C@@H]3N(C4)C[C@H]5OC)C[C@H]1[C@]2(CO)C(=O)OC
HL-60
  IC50: > 10 µM
A549
  IC50: > 10 µM
SMMC-7721
  IC50: > 10 µM
MCF7
  IC50: > 10 µM
SW480
  IC50: > 10 µM
HeLa [1]
  EC50: > 40 µM

## COC(=O)[C@@]12C[C@@H]3CC([C@H](C)O)[C@@H]1[N@@](CC[C@]1(O)C2=Nc2ccc(OC)cc21)C3 (stereo partly drawn)
HeLa [1]
  EC50: > 40 µM

## C/C=C1/CN(C)[C@H]2Cc3c([nH]c4ccccc34)[C@H](c3c(OC)ccc4c3N=C3[C@]5(C(=O)OC)C[C@@H]6C[C@H](CC)[C@@H]5N(CC[C@]34O)C6)C[C@H]1[C@]2(CO)C(=O)OC
HeLa [1]
  EC50: > 40 µM

## CC[C@H]1C[C@H]2C[C@@]3(C(=O)OC)c4[nH]c5ccccc5c4CC[N@@](C2CC(C)=O)[C@@H]13 (stereo partly drawn)
HeLa [1]
  EC50: > 40 µM

## COC(=O)C[C@@H]1[C@@H]2C[C@H]([C@H](C)O)[C@@H]3N1CCc1c([nH]c4cc(OC)ccc14)[C@]3(C(=O)OC)C2
HL-60
  IC50: > 10 µM
A549
  IC50: > 10 µM
SMMC-7721
  IC50: > 10 µM
MCF7
  IC50: > 10 µM
SW480
  IC50: > 10 µM
HeLa [1]
  EC50: > 40 µM

## C/C=C1/CN2COC[C@@]3(C(=O)OC)[C@@H]1C[C@H](c1cc4c5c([nH]c4cc1OC)[C@]1(C(=O)OC)C[C@@H]4C[C@H](CC)[C@@H]1N(CC5)C4)c1[nH]c4ccccc4c1C[C@H]23
HL-60
  IC50: 3.2 µM
A549
  IC50: 8.6 µM
SMMC-7721
  IC50: 4.7 µM
MCF7
  IC50: 4 µM
SW480
  IC50: 3.5 µM
HeLa [1]
  EC50: 29.8 µM
  inhibition: Dose-dependent effect

## CO/C1=C\C(C)=C\[C@@H](C)[C@@H](O)[C@@H](C)C/C(C)=C/C=C/[C@H](OC)[C@@H]([C@@H](C)[C@@H](O)[C@H](C)[C@@]2(O)C[C@@H](O)[C@H](C)[C@@H](C(C)C)O2)OC1=O
HeLa [6]
  inhibition: Active
HeLa [7]
  inhibition: Active
HeLa [8]
  inhibition: Active
HeLa [9]
  inhibition: Active

## CC[C@H]1C[C@H]2C[N@]3CCc4c([nH]c5ccc(OC)cc45)[C@](C(=O)OC)(C2)[C@H]13
HeLa [1]
  EC50: > 40 µM

## C/C=C1/CN2COC[C@@]3(C(=O)OC)[C@@H]1C[C@@H](c1c(OC)ccc4c5c([nH]c14)[C@]1(C(=O)OC)C[C@@H]4C[C@H](CC)[C@@H]1N(CC5)C4)c1[nH]c4ccccc4c1C[C@H]23
HeLa [1]
  EC50: > 40 µM

## COC(=O)[C@@]12C[C@@H]3C[C@@H]([C@H](C)O)C1[N@@](CCc1c2[nH]c2ccccc12)C3
HeLa [1]
  EC50: > 40 µM

## C/C=C1/CN2COC[C@]3(C(=O)OC)[C@@H]1C[C@@H](c1c(OC)ccc4c5c([nH]c14)[C@]1(C(=O)OC)C[C@H]4C[C@H](CC)[C@@H]1N(CC5)C4=O)c1[nH]c4ccccc4c1C[C@H]23
HL-60
  IC50: > 10 µM
A549
  IC50: > 10 µM
SMMC-7721
  IC50: > 10 µM
MCF7
  IC50: > 10 µM
SW480
  IC50: > 10 µM
HeLa [1]
  EC50: > 40 µM

## C/C=C1/CN(C)[C@H]2Cc3c([nH]c4ccccc34)[C@H](OC)C[C@H]1[C@]2(CO)C(=O)OC
HL-60
  IC50: > 10 µM
A549
  IC50: > 10 µM
SMMC-7721
  IC50: > 10 µM
MCF7
  IC50: > 10 µM
SW480
  IC50: > 10 µM
HeLa [1]
  EC50: > 40 µM
